From patent US20230372433A1, “NANOPARTICLE FOR ANTI-CANCER PEPTIDES AND USES THEREOF” (KING'S COLLEGE LONDON, priority 2020, published 2023)
Read-outs that look alike come from different tables or passages of the source.

What was measured:
[1] = tested on: HMLER (human breast cancer bulk cell); assay: MTT cytotoxicity assay, HMLER; type: cell-based; settings: 72 hr, MTT; read-out: IC50 HMLER
[2] = tested on: HMLER-shEcad (human breast cancer stem cell); assay: MTT cytotoxicity assay, HMLER-shEcad; type: cell-based; settings: 72 hr, MTT; read-out: IC50 HMLER-shEcad
[3] = tested on: MCF-10A (human breast epithelial cell); assay: cells
Source text: HMLER (human mammary endothelial cancer cells), HMLER-shEcad (human mammary endothelial cancer stem cells), and MCF-10A (healthy human mammary endothelial) cells were maintained in Mammary Epithelial Cell Growth Medium (MEGM) with supplements and growth factors: bovine pituitary extract (BPE), hydrocortisone, human epidermal growth factor (hEGF), insulin, and gentamicin/amphotericin-B. HEK293T (human embryonic kidney cell), and U2OS (homo sapiens bone osteosarcoma) cells were maintained in Dulbecco's Modified Eagle's Medium (DMEM) with a final concentration of 10% fetal bovine serum. The cells were grown in T75 flask at 310 K in a humidified atmosphere containing 5% CO2.
The colourimetric MTT (3-(4,5-dimethylthiazol-2-yl)-2,5-diphenyltetrazolium bromide) assay was used to determine the toxicity of the anti-cancer peptides and conventional anti-cancer drugs. 5×10^3 cells were seeded in each well of a 96-well microplate. The cells were incubated overnight. Elevated concentrations of the compounds (0, 0.1, 0.2, 0.4, 0.8, 1.6, 3.1, 6.3, 12.5, 25, 50 and 100 μM) were added and incubated for 72 hr with a total volume 200 μL. The stock solutions of the compounds were prepared as 5 mM solutions in DMSO and diluted using media or in pure water. The final concentration of DMSO in each well was either 0.5% or 0% and this amount was present in the untreated control. After 72 hr, 20 μL of a 4 mg/mL solution of MTT in PBS was added to each well, and the plate was incubated for an additional 4 hr. The MEGM/MTT mixture was aspirated and 100 μL of DMSO was added to dissolve the resulting purple formazan crystals. The absorbance of the solutions in each well was read at 550 nm wavelength. Absorbance values were normalized to either DMSO-containing or non DMSO-containing control wells and plotted as concentration of test compound versus % cell viability. ICso values were interpolated from the resulting dose dependent curves.
The peptides were screened against several different human cell lines and their cytotoxicity were determined. Cell lines utilised include MCF-10A (human breast epithelial cell), HMLER (human breast cancer bulk cell), HMLER-shEcad (human breast cancer stem cell), HEK293T (human embryonic kidney cell), and U2OS (human bone osteosarcoma).

[4] = tested on: U2OS (human bone osteosarcoma); assay: MTT cytotoxicity assay, U2OS; type: cell-based; settings: 72 hr
[5] = tested on: HEK293T (human embryonic kidney cell); assay: MTT cytotoxicity assay, HEK293T; type: cell-based; settings: 72 hr, MTT; read-out: IC50 HEK293T
[6] = Tryptophan fluorescent binding assay, POPC vesicles; settings: 50 μM peptide, PBS pH 7.4
Method: (§1) In brief, 50 μM peptides were fixed and incubated with titrated POPC vesicles (black) or 3POPC/1POPG vesicles (grey) at concentrations of 0, 12.5, 25, 50, 100, 250, 500, 1000, 2500, and 5000 μM in phosphate buffered saline (1X, pH 7.4). The lipid concentration that causes 50% peptide binding was determined using a tryptophan fluorescent binding assay and the values are shown as lipid per peptide.
(§2) The lipids 1-palmitoyl-2-oleoyl-sn-glycero-3-phosphocholine (POPC), 1-palmitoyl-2-oleoyl-snglycero-3-phospho-(1′-rac-glycerol) (POPG) were purchased from Avanti Polar Lipids and dissolved in chloroform. Large unilamellar vesicles (LUVs) were produced by extrusion through 100 nm pore filter using an extruder and filters purchased from Avanti Polar Lipids.
(§3) Peptides (50 μM) and POPC/POPG LUVs (600 μM) were prepared in 10 mM phosphate buffer (pH 7.0). The solutions were incubated and measured after 60 minutes. Excitation was fixed at 280 nm (slit 9 nm) and emission was collected from 300 to 450 nm (slit 9 nm). The spectra were recorded using a Synergy H1 Hybrid Multi-Mode Reader (FIG. 3A) and Cytation™ 5 Cell Imaging Multi-Mode Reader (FIG. 2) from BioTek and were averaged over 3 scans.
(§4) Table 3 illustrates the lipid concentration-induced 50% peptide binding onto a liposome. 50 μM peptide was fixed and incubated with titrated lipid (POPC vesicles or 3POPC/1POPG vesicles) at concentrations of 0, 12.5, 25, 50, 100, 250, 500, 1000, 2500, and 5000 μM in phosphate buffered saline (1X, pH 7.4). The lipid concentration that causes 50% peptide binding was determined using tryptophan fluorescent binding assay and the values are shown as lipid per peptide. IN-terminus is free, C-terminus: —W—NH2.

[7] = Tryptophan fluorescent binding assay, 3POPC/1POPG vesicles; settings: 50 μM peptide, PBS pH 7.4
Method: as §1, §2, §3, §4

[8] = ANTS/DPX liposome leakage assay, POPC vesicles; type: biochemical; settings: 0.5 mM vesicles
Method: (§5) In brief, 0.5 mM POPC vesicles (grey) or POPC:POPG vesicles (ratio 3:1, black) were incubated with peptide concentrations of 0, 0.02, 0.04, 0.08, 0.16, 0.32, 0.64, 1.25, 2.5, 5, 10, and 20 μM in each A) hydrochloric acid-adjusted phosphate buffered saline (1X, pH 4.8) and B) phosphate buffered saline (1X, pH 7.4).
as §2
(§6) 5 mM ANTS (8-aminonaphthalene-1,3,6-trisulfonic acid, disodium salt) and 12.5 mM DPX (p-xylene-bis-pyridinium bromide) were entrapped in 0.1 μm diameter extruded vesicles with lipids. Gel filtration chromatography using a Sephadex G-100 (GE Healthcare Life Sciences Inc) was used to remove external free ANTS/DPX from LUVs with entrapped contents. LUVs were diluted to 0.5 mM and used to measure the leakage activity by addition of aliquots of peptides. Leakage was measured after 3 h incubation. 10% Triton was used as the positive control to measure the maximum leakage of the vesicle. Fluorescence emission spectra were recorded using excitation and emission wavelength of 350 nm and 510 nm for ANTS/DPX using a BioTek Synergy H1 Hybrid Multi-Mode Reader.
(§7) Table 4 illustrates peptide concentration-induced 50 ANTS/DPX liposome leakage. 0.5 mM POPC and 3POPC/1POPG vesicles were fixed and incubated with titrated peptide concentration (0, 0.02, 0.04, 0.08, 0.16, 0.32, 0.64, 1.25, 2.5, 5, 10, and 20 μM) each in phosphate buffered saline (1X, pH 7.4) and hydrochloric acid-adjusted phosphate buffered saline (1X, pH 4.8). The values are shown as lipid per peptide. IN-terminus is free, C-terminus: —W—NH2.

[9] = ANTS/DPX liposome leakage assay, 3POPC/1POPG vesicles; type: biochemical; settings: for Peptide Concentration-induced 50% ANTS/DPX leakage at pH 4.8 (L/P) 3POPC/1POPG Vesicle / Peptide Concentration-induced 50% ANTS/DPX leakage at pH 7.4 (L/P) 3POPC/1POPG Vesicle: 0.5 mM vesicles
Method: as §5, §2, §6, §7

[10] = read-out: IC50 MCF-10A, 72 hr, MTT

Compound | IC50 [1] [µM] | IC50 [2] [µM] | IC50 [3, 10] [µM] | IC50 [4] [µM] | IC50 [5] [µM] | Lipid Concentration-induced 50% Peptide Binding (L/P) POPC Vesicle [6] [L/P] | Lipid Concentration-induced 50% Peptide Binding (L/P) 3POPC/1POPG Vesicle [7] [L/P] | Peptide Concentration-induced 50% ANTS/DPX leakage at pH 4.8 (L/P) POPC Vesicle [8] [L/P] | Peptide Concentration-induced 50% ANTS/DPX leakage at pH 7.4 (L/P) POPC Vesicle [8] [L/P] | Peptide Concentration-induced 50% ANTS/DPX leakage at pH 4.8 (L/P) 3POPC/1POPG Vesicle ([9]; pH 4.8) [L/P] | Peptide Concentration-induced 50% ANTS/DPX leakage at pH 7.4 (L/P) 3POPC/1POPG Vesicle [9] [L/P] | IC50 [3] [µM] | liposome leakage activity from anionic vesicle at pH 4.8 ([9]; compared with zwitterionic vesicle, pH 4.8)
GLLDLLELLLEAAG [DEE] | 5.55 ± 0.35 | 6.05 ± 2.76 | 8.4 ± 1.56 | 61 ± 1.41 | 9.91 ± 0.44 | 0.63 | 0.38 | 110 | 644 | 164 | 597 |  | 
GLLKLLELLLKAAG [KEK] | 1.6 ± 0.14 | 1.35 ± 0.07 | 1.55 ± 0.07 | 8.15 ± 0.49 | 3.2 ± 0.14 | 0.47 | 0.50 | 110 | 1173 | 126 | 438 |  | 
GLLDLLELLLHAAG [DEH] | 5.35 ± 1.91 | 3.6 ± 0.42 | 20.2 ± 6.72 | 36.5 ± 3.92 | 10.5 ± 4.67 | 0.75 | 1.50 | 63 | 620 | 193 | 548 |  | 
CC(C)C[C@H](NC(=O)CN)C(=O)N[C@@H](CC(C)C)C(=O)N[C@@H](CCC(=O)O)C(=O)N[C@@H](CC(C)C)C(=O)N[C@@H](CC(C)C)C(=O)N[C@@H](CCC(=O)O)C(=O)N[C@@H](CC(C)C)C(=O)N[C@@H](CC(C)C)C(=O)N[C@@H](CC(C)C)C(=O)N[C@@H](Cc1c[nH]cn1)C(=O)N[C@@H](C)C(=O)N[C@@H](C)C(=O)NCC(=O)N[C@@H](Cc1c[nH]c2ccccc12)C(N)=O [EEH] | 3.3 ± 0.14 | 3.6 ± 0.85 |  | 19.6 ± 3.96 | 12.9 ± 0.14 | 0.50 | 0.50 | 58 | 738 | 168 | 755 | ≥ 100 | relatively higher liposome leakage activity
GLLKLLKLLLHAAG [KKH] | 2.4 ± 0.85 | 2.2 ± 0.42 | 1.75 ± 0.35 | 13.3 ± 0.99 | 4 ± 0.28 | 0.83 | 0.48 | 164 | 2119 | 49 | 227 |  | 
GLLHLLHLLLKAAG [HHK] | 3.15 ± 0.07 | 1.75 ± 0.21 | 5.6 ± 0.14 | 12.7 ± 1.91 | 5.25 ± 1.48 | 0.68 | 0.20 | 149 | 1133 | 111 | 160 |  | 
GLLKLLKLLLKAAG [KKK] | 1.57 ± 0.24 | 1.35 ± 0.4 | 1.37 ± 0.24 | 9.65 ± 1.2 | 3.7 ± 0.14 | 1.25 | 1.70 | 156 | 1369 | 81 | 115 |  | 
GLLKLLHLLLEAAG [KHE] | 3.7 ± 0.14 | 2.92 ± 0.17 | 20.9 ± 5.87 | 53 ± 2.83 | 26 ± 2.83 | 0.88 | 0.71 | 183 | 981 | 156 | 188 |  | 
GLLDLLKLLLKAAG [DKK] | 1.95 ± 0.35 | 1.2 ± 0.14 | 2.57 ± 0.52 | 10.4 ± 1.7 | 3.4 ± 0.28 | 2.75 | 6.88 | 47 | 463 | 227 | 156 |  | 
